Article PMC4069242 (Clinical and experimental allergy : journal of the British …, 2014)
pIC50: −log10 of the molar value. Where no end group is shown, it is not given here.

target: DR04:01 protein (Homo sapiens, UniProt P01903+P01911, A100K/A169T/F76Y/I96L/K127E/L162R/M171V/N62H/P40V/Q125Y/R42H/S133A/S149N/S66Y/V115G/V209L/W38E); test: Peptide binding assay

Row | Molecule | pIC50
1 | EEPIAPYHFDLSGHAFGSMA [Lol p 1 97-116] | 6.36
2 | CC[C@H](C)[C@H](NC(=O)[C@@H](NC(=O)[C@H](CC(=O)O)NC(=O)[C@H](CCC(=O)O)NC(=O)[C@H](C)NC(=O)[C@H](CCC(=O)O)NC(=O)[C@@H](N)[C@@H](C)O)C(C)C)C(=O)N1CCC[C@H]1C(=O)N[C@@H](CCC(=O)O)C(=O)NCC(=O)N[C@@H](Cc1c[nH]c2ccccc12)C(=O)N[C@@H](CCCCN)C(=O)N[C@@H](C)C(=O)N[C@@H](CC(=O)O)C(=O)N[C@H](C(=O)N[C@@H](CO)C(=O)N[C@@H](Cc1ccc(O)cc1)C(=O)N[C@@H](CCC(=O)O)C(=O)N[C@@H](CO)C(=O)N[C@@H](CCCCN)C(=O)O)[C@@H](C)O [Phl p 1 221-240] | 5.53
3 | AAFRIAATAANAA [Holl 5a 167-186] | 6.94
4 | AAYKIAATAANAA [Dac g 5a 167-186] | 7.30
5 | ESYKFIPALEAAV [Hor v 5a 199-218] | 6.00
6 | EAYKFIPSLETAV [Holl 5a 199-218] | 6.98
7 | AAYRTAATAANAA [Lol p 5a 167-186] | 6.27
8 | SEFEDVIPEGWKADTSYSAK [Lol p 1 221-240] | 5.53
9 | ESYKFIPALEAAV [Phl p 5a 199-218] | 6.01
10 | EEPIAPYHFDLSGHAFGAMA [Phl p 1 97-116] | 6.56
11 | ETYKFIPSLEAAV [Pha a 5a 199-218] | 7.29
12 | SEVEDVIPEGWKADTSYEAK [Dac g 1 221-240] | 6.75
13 | ESYKFIPTLEAAV [Dac g 5a 199-218] | 7.13
14 | AAFRTAATAADAA [Hor v 5a 167-186] | 6.01
15 | DSYKFIPTLVAAV [Lol p 5a 199-218] | 6.39
